Experimental data taken from ChEMBL document CHEMBL1806420, “Design, synthesis and antimycobacterial evaluation of novel 3-substituted-N-aryl-6,7-dimethoxy-3a,4-dihydro-3H-indeno[1,2-c]pyrazole-2-carboxamide analogues” (Bioorg Med Chem Lett, 2011).
Values after ≈ are worked out from the molar mass of the structure shown.

Tests used:
[1] = system: Mycobacterium tuberculosis; experiment: Antimycobacterial activity against Mycobacterium tuberculosis H37Rv by agar dilution method; type: functional
Vero = experiment: Cytotoxicity against african green monkey Vero cells upto 62.5 ug/ml after 72 hrs by MTT assay; type: cell-based; details: chlorocebus sabaeus

Structure (SMILES) | MIC [1] [µM] | Activity (Vero)
COc1cc2c(cc1OC)C1=NN(C(=O)Nc3ccc(F)c(Cl)c3)C(c3ccccc3)C1C2 (configuration not stated) | 6.25 (≈ 2.91 µg/mL) | Non-toxic
COc1ccc(C2C3Cc4cc(OC)c(OC)cc4C3=NN2C(=O)Nc2ccc(F)c(Cl)c2)cc1 (configuration not stated) | > 6.25 | 
COc1cc2c(cc1OC)C1=NN(C(=O)Nc3ccc(F)cc3)C(c3ccncc3)C1C2 (configuration not stated) | 3.12 (≈ 1.35 µg/mL) | Non-toxic
COc1cc2c(cc1OC)C1=NN(C(=O)Nc3ccc(F)cc3)C(c3ccccc3Cl)C1C2 (configuration not stated) | 6.25 (≈ 2.91 µg/mL) | Non-toxic
COc1cc2c(cc1OC)C1=NN(C(=O)Nc3ccc(F)cc3)C(c3ccc(F)cc3)C1C2 (configuration not stated) | 0.78 (≈ 0.351 µg/mL) | Non-toxic
COc1ccc(C2C3Cc4cc(OC)c(OC)cc4C3=NN2C(=O)Nc2ccc(F)cc2)cc1OC (configuration not stated) | > 10 | Non-toxic
COc1cc2c(cc1OC)C1=NN(C(=O)Nc3ccc(F)cc3)C(c3ccccc3)C1C2 (configuration not stated) | > 6.25 | 
COc1ccc(C2C3Cc4cc(OC)c(OC)cc4C3=NN2C(=O)Nc2ccc(F)cc2)cc1 (configuration not stated) | 10 (≈ 4.61 µg/mL) | Non-toxic
COc1cc2c(cc1OC)C1=NN(C(=O)Nc3ccc(Br)cc3)C(c3ccncc3)C1C2 (configuration not stated) | 6.25 (≈ 3.08 µg/mL) | Non-toxic
COc1cc2c(cc1OC)C1=NN(C(=O)Nc3ccc(Br)cc3)C(c3ccccc3Cl)C1C2 (configuration not stated) | > 6.25 | 
COc1cc2c(cc1OC)C1=NN(C(=O)Nc3ccc(Br)cc3)C(c3ccc(F)cc3)C1C2 (configuration not stated) | 3.12 (≈ 1.59 µg/mL) | Non-toxic
COc1ccc(C2C3Cc4cc(OC)c(OC)cc4C3=NN2C(=O)Nc2ccc(Br)cc2)cc1OC (configuration not stated) | > 10 | Non-toxic
COc1cc2c(cc1OC)C1=NN(C(=O)Nc3ccc(Br)cc3)C(c3ccccc3)C1C2 (configuration not stated) | > 6.25 | 
COc1ccc(C2C3Cc4cc(OC)c(OC)cc4C3=NN2C(=O)Nc2ccc(Br)cc2)cc1 (configuration not stated) | > 10 | Non-toxic
COc1cc2c(cc1OC)C1=NN(C(=O)Nc3ccc(F)c(Cl)c3)C(c3ccncc3)C1C2 (configuration not stated) | > 6.25 | 
COc1cc2c(cc1OC)C1=NN(C(=O)Nc3ccc(F)c(Cl)c3)C(c3ccccc3Cl)C1C2 (configuration not stated) | 6.25 (≈ 3.13 µg/mL) | Non-toxic
COc1cc2c(cc1OC)C1=NN(C(=O)Nc3ccc(F)c(Cl)c3)C(c3ccc(F)cc3)C1C2 (configuration not stated) | 0.78 (≈ 0.377 µg/mL) | Non-toxic
COc1ccc(C2C3Cc4cc(OC)c(OC)cc4C3=NN2C(=O)Nc2ccc(F)c(Cl)c2)cc1OC (configuration not stated) | > 6.25 | 
NNC(=O)c1ccncc1 [ISONIAZID] | 0.78 (≈ 0.107 µg/mL) | 
CO[C@H]1/C=C/O[C@@]2(C)Oc3c(C)c(O)c4c(O)c(c(/C=N/N5CCN(C)CC5)c(O)c4c3C2=O)NC(=O)/C(C)=C\C=C\[C@H](C)[C@H](O)[C@@H](C)[C@@H](O)[C@@H](C)[C@H](OC(C)=O)[C@@H]1C [RIFAMPIN] | 0.006 (≈ 0.00494 µg/mL) | 
